According to patent US7094801B2, “Chalcone derivatives and their use to treat diseases” (Atherogenics, Inc., priority 2001, dated 2006):

Experiments:
VCAM-1 = assay: In Vitro VCAM-1 Assay (TNF-α stimulated HAEC or HPAEC, cell ELISA); type: cell-based, human; settings: Homo sapiens, 16 h, TNF-α (1 ng/ml) stimulated HAEC or HPAEC, approximately 16 hours
Description: Cell Culture and compound dosing: Cultured primary human aortic (HAEC) or pulmonary (HPAEC) endothelial cells were obtained from Clonetics, Inc., and were used below passage 9. Cells were seeded in 96 well plates such that they would reach 90–95% confluency by the following day. On the following day the cells were stimulated with TNF-α (1 ng/ml) in the presence or absence of compounds dissolved in DMSO such that the final concentration of DMSO is 0.25% or less. To establish a dose curve for each compound, four concentrations in 2- to 5-fold increments were used. Cells were exposed to TNF-α and compounds for approximately 16 hours. The next day the cells were examined under microscope to score for visual signs of toxicity or cell stress.
Following 16 hr exposure to TNF-α and compound the media was discarded and the cells were washed once with Hanks Balanced Salt Solution (HBSS)/Phosphate buffered saline (PBS) (1:1). Primary antibodies against VCAM-1 (0.25 μg/ml in HBSS/PBS+5% FBS) were added and incubated for 30–60 minutes at 37° C. Cells were washed with HBSS/PBS three times, and secondary antibody Horse Radish Peroxidase (HRP)-conjugated goat anti-mouse IgG (1:500 in HBSS/PBS+5% FBS) were added and incubated for 30 minutes at 37° C. Cells were washed with HBSS/PBS four time and TMB substrate were added and incubated at room temperature in the dark until there was adequate development of blue color. The length of time of incubation was typically 5–15 minutes. 2N sulfuric acid was added to stop the color development and the data was collected by reading the absorbance on a BioRad ELISA plate reader at OD 450 nm. The results are expressed as IC50 values (the concentration (micromolar) of compound required to inhibit 50% of the maximal response of the control sample stimulated by TNF-α only).

SMILES	IC50 (VCAM-1)	melting point
O=C(O)c1ccc(C(=O)/C=C/c2ccc(N3CCCC3)c(-c3cccs3)c2)cc1 [Example 20, 4-[3E-(4-Pyrrolidin-1-yl-3-thiophen-2-yl-phenyl)-acryloyl]-benzoic acid]	> 10 µM	212 to 214 °C (dec.)
COc1cc(-c2cccs2)cc(OC)c1/C=C/C(=O)c1ccc(C(=O)O)cc1 [Example 37, 4-[3E-(2,6-Dimethoxy-4-thiophen-2-yl-phenyl)-acryloyl]-benzoic acid]	> 10 µM	256 to 258 °C
COc1cc(OC)c(-c2cccs2)cc1/C=C/C(=O)c1cccc(C(=O)O)c1 [Example 43, 3-[3E-(2,4-Dimethoxy-5-thiophen-2-yl-phenyl)-acryloyl]-benzoic acid]	< 5 µM	179 to 182 °C
COc1cc(OC)c(-c2cccn2C(=O)OC(C)(C)C)cc1/C=C/C(=O)c1ccc(C(=O)O)cc1 [Example 57, 2-{5-[3-(4-Carboxy-phenyl)-3-oxo-E-propenyl]-2,4-dimethoxy-phenyl}-pyrrole-1-carboxylic acid tert-butyl ester]	< 5 µM	205 to 207 °C
COc1cc(OC)c(-c2cc3ccccc3n2C)cc1/C=C/C(=O)c1ccc(S(N)(=O)=O)cc1 [Example 117, 4-{3E-[2,4-Dimethoxy-5-(1-methyl-1H-indol-2-yl)-phenyl]-acryloyl}-benzenesulfonamide]	< 5 µM	148 to 150 °C
COc1cc(OC)c(-c2cc3ccccc3s2)cc1/C=C/C(=O)c1ccc(C(=O)NC(=O)C(C)C)cc1 [Example 96, 4-[3E-(5-Benzo[b]thiophen-2-yl-2,4-dimethoxy-phenyl)-acryloyl]-N-isobutyryl-benzamide]	< 5 µM	208 to 209 °C
COc1cc(OC(C)(C)C(=O)O)c(-c2cccs2)cc1/C=C/C(=O)c1ccc(NS(C)(=O)=O)cc1 [Example 100, 2-{4-[3-(4-Methanesulfonylamino-phenyl)-3-oxo-E-propenyl]-5-methoxy-2-thiophen-2-yl-phenoxy}-2-methyl-propionic acid]	> 10 µM	181 to 183 °C
COc1ncc(-c2cc(/C=C/C(=O)c3ccc(C(=O)O)cc3)c(OC)cc2OC)c(OC)n1 [Example 38, 4-{3E-[5-(2,4-Dimethoxy-pyrimidin-5-yl)-2,4-dimethoxy-phenyl]-acryloyl}-benzoic acid]	< 10 µM	203 to 205 °C
O=C(/C=C/c1ccc(-c2cccs2)cc1)c1ccc2c(c1)OC(CO)(CO)O2 [Example 2, 1-(2,2-Bis-hydroxymethyl-benzo[1,3]dioxol-5-yl)-3E-(4-thiophen-2-yl-phenyl)-propenone]	< 5 µM	166 to 168 °C
COc1cc(OC)c(/C=C/C(=O)c2ccc(C(=O)O)cc2)c(-c2cccs2)c1 [Example 39, 4-[3E-(2,4-Dimethoxy-6-thiophen-2-yl-phenyl)-acryloyl]-benzoic acid]	> 10 µM	231 °C (dec.)
COc1cc(OCn2nnc3ccccc32)c(/C=C/C(=O)c2ccc(S(N)(=O)=O)cc2)cc1-c1cccs1 [Example 115, 4-{3E-[2-(Benzotriazol-1-ylmethoxy)-4-methoxy-5-thiophen-2-yl-phenyl]-acryloyl}-benzenesulfonamide]	< 5 µM	255 °C (dec.)
O=C(/C=C/c1ccc(-c2cccs2)cc1)c1ccc(S)cc1 [Example 22, 1-(4-Mercapto-phenyl)-3E-(4-thiophen-2-yl-phenyl)-propenone]	> 10 µM	> 110 °C (dec.)
COc1ccc(/C=C/C(=O)c2ccc(C(=O)O)cc2)cc1-c1cccs1 [Example 41, 4-[3E-(4-Methoxy-3-thiophen-2-yl-phenyl)-acryloyl]-benzoic acid]	< 5 µM	219 to 220 °C
COc1cc(OC)c(-c2cncnc2)cc1/C=C/C(=O)c1ccc(C(=O)O)cc1 [Example 31, 4-[3E-(2,4-Dimethoxy-5-pyrimidin-5-yl-phenyl)-acryloyl]-benzoic acid]	> 10 µM	> 260 °C
COc1cc(OC(C)(C)C(=O)O)c(-c2cccs2)cc1/C=C/C(=O)c1ccc(N(C)S(C)(=O)=O)cc1 [Example 101, 2-(4-{3-[4-(Methanesulfonyl-methyl-amino)-phenyl]-3-oxo-E-propenyl}-5-methoxy-2-thiophen-2-yl-phenoxy)-2-methyl-propionic acid]	> 10 µM	197 to 200 °C
COc1cc(OCc2nc3ccccc3[nH]2)c(/C=C/C(=O)c2ccc(S(N)(=O)=O)cc2)cc1-c1cccs1 [Example 113, 4-{3E-[2-(1H-Benzoimidazol-2-ylmethoxy)-4-methoxy-5-thiophen-2-yl-phenyl]-acryloyl}-benzenesulfonamide]	< 5 µM	235 to 237 °C (dec.)
COc1cc(OCCCN2CCOCC2)c(/C=C/C(=O)c2ccc(C(N)=O)cc2)cc1-c1cccs1 [Example 94, 4-{3E-[4-Methoxy-2-(3-morpholin4-yl-propoxy)-5-thiophen-2-yl-phenyl]-acryloyl}-benzamide]	< 1 µM	81 to 83 °C
COc1cc(OC)c(-c2nccs2)cc1/C=C/C(=O)c1ccc(C(=O)O)cc1 [Example 55, 4-[3E-(2,4-Dimethoxy-5-thiazol-2-yl-phenyl)-acryloyl]-benzoic acid]	< 5 µM	> 260 °C
COc1cc(/C=C/C(=O)c2ccc(N(C)S(C)(=O)=O)cc2)cc(-c2cccs2)c1OC [Example 98, N-{4-[3E-(3,4-Dimethoxy-5-thiophen-2-yl-phenyl)-acryloyl]-phenyl}-N-methyl-methanesulfonamide]	< 5 µM	
COc1cc(OC)c(-c2ccc(C(=O)O)s2)cc1/C=C/C(=O)c1ccc(C(=O)O)cc1 [Example 52, 5-{5-[3-(4-Carboxy-phenyl)-3-oxo-E-propenyl]-2,4-dimethoxy-phenyl}-thiophene-2-carboxylic acid]	> 10 µM	

Continued, values first:

IC50 (VCAM-1)	melting point	SMILES
> 10 µM	> 260 °C	COc1cc(OC)c(-c2cc3ccccc3s2)cc1/C=C/C(=O)c1ccc(Nc2c(N)c(=O)c2=O)cc1 [Example 102, 3-Amino-4-{4-[3E-(5-benzo[b]thiophen-2-yl-2,4-dimethoxy-phenyl)-acryloyl]-phenylamino}-cyclobut-3-ene-1,2-dione]
< 1 µM	231 °C	COc1cc(/C=C/C(=O)c2ccc(C(=O)O)cc2)cc(-c2cccs2)c1OC [Example 8, 4-[3E-(3,4-Dimethoxy-5-thiophen-2-yl-phenyl)-acryloyl]-benzoic acid]
> 10 µM	> 245 °C	NS(=O)(=O)c1ccc(C(=O)/C=C/c2ccc(-c3cccs3)cc2)cc1 [Example 26, 4-[3E-(4-Thiophen-2-yl-phenyl)-acryloyl]-benzenesulfonamide]
< 5 µM	188 to 189 °C	COc1cc(OCc2ccccn2)c(/C=C/C(=O)c2ccc(S(N)(=O)=O)cc2)cc1-c1cccs1 [Example 114, 4-{3E-[4-Methoxy-2-(pyridin-2-ylmethoxy)-5-thiophen-2-yl-phenyl]-acryloyl}-benzenesulfonamide]
< 5 µM	> 260 °C	O=C(O)c1ccc(C(=O)/C=C/c2ccc(-c3cccs3)cc2)cc1 [Example 10, 4-[3E-(4-Thiophen-2-yl-phenyl)-acryloyl]-benzoic acid]
< 1 µM	74 to 80 °C	COc1cc(/C=C/C(=O)c2ccc3c(c2)OC(CO)(CO)O3)cc(-c2cccs2)c1OC [Example 1, 1-(2,2-Bis-hydroxymethyl-benzo[1,3]dioxol-5-yl)-3E-(3,4-dimethoxy-5-thiophen-2-yl-phenyl)-propenone]
> 10 µM	138 to 140 °C	CSc1ccc(C(=O)/C=C/c2ccc(-c3cccs3)cc2)cc1 [Example 24, 1-(4-Methylthiophenyl)-3E-(4-thiophen-2-yl-phenyl)-propenone]
< 1 µM	232 to 235 °C	O=C(O)c1ccc(C(=O)/C=C/c2ccc(-c3nccs3)cc2)cc1 [Example 5, 4-[3E-(4-Thiazol-2-yl-phenyl)acryloyl]-benzoic acid]
< 5 µM	215 to 217 °C	COc1cc(OC)c(-c2cc3ccccc3s2)cc1/C=C/C(=O)c1ccc(C(=O)NCC(F)(F)F)cc1 [Example 91, 4-[3E-(5-Benzo[b]thiophen-2-yl-2,4-dimethoxy-phenyl)-acryloyl]-N-(2,2,2-trifluoro-ethyl)-benzamide]
< 10 µM	> 260 °C	O=C(O)c1ccc(C(=O)/C=C/c2ccc(-c3cncnc3)cc2)cc1 [Example 4, 4-[3E-(4-Pyrimidin-5-yl-phenyl)-acryloyl]-benzoic acid]
< 10 µM	165 to 167 °C	COc1cc(OC)c(-c2cc3ccccc3s2)cc1/C=C/C(=O)c1ccc(C(C)=O)cc1 [Example 108, 1-(4-Acetyl-phenyl)-3E-(5-benzo[b]thiophen-2-yl-2,4-dimethoxy-phenyl)-propenone]
